Among the data in patent publication US8846730B2, “Compounds as cannabinoid receptor ligands” (priority 2008, dated 2014) are EC50 and Ki values, retold here.

The EC50 is the concentration that produces a half-maximal response. What is called Ki is the equilibrium dissociation constant of an inhibitor or competing ligand from its target.

Where two headings read alike, the source gives them in different places.

In assay [1] the target is rat CB1 receptors (HEK cells) (Rattus norvegicus (Rat), UniProt P20272). In words: rat CB1 cyclase functional assay (HitHunter cAMP). In kind it is cell-based. The protocol: (§1) The cyclase functional assays were performed using the HitHunter™ cAMP assay kit from DiscoveRx (Fremont, Calif.) according to vendor's protocol. Briefly, HEK cells expressing CB2 or CB1 receptors (rat or human) were detached using cell dissociation buffer (Invitrogen, Carlsbad, Calif.), dispersed and placed in suspension at 10,000 cells per well in 96 well plates prior to the assay. Cell suspensions were incubated at 37° C. for 20 min with variable concentrations of test ligands and or 10 μM CP 55,940-positive control in the presence of a fixed concentration of forskolin (18 μM for rat CB2 and 37 μM for rat CB1) in Dulbescco's phosphate-buffered saline (Invitrogen, Carlsbad, Calif.) supplemented with bovine serum albumin (0.01% final concentration). The reactions were terminated by the addition of lysis buffer and the luminescence was detected following the procedure according to the manufacturer's instructions. EC50 values were calculated using sigmoidal dose-response curve fitting from Prism (GraphPad).

The target in the next assay is human CB2 receptors (Homo sapiens (Human), UniProt P34972). In words: human CB2 radioligand binding assay ([3H]CP 55,940 competition). The conditions noted are these: HEK293 membranes, 0.5 nM [3H]CP 55,940; read-out: human CB2 (Ki). The protocol: (§2) The CB1 and CB2 radioligand binding assays described herein are utilized to ascertain the affinity of compounds of the present application for binding to CB2 relative to CB1 receptors.
HEK293 cells stably expressing human CB2 receptors were grown until a confluent monolayer was formed. Briefly, the cells were harvested and homogenized in TE buffer (50 mM Tris-HCl, 1 mM MgCl2, and 1 mM EDTA) using a polytron for 2×10 second bursts in the presence of protease inhibitors, followed by centrifugation at 45,000×g for 20 minutes. The final membrane pellet was re-homogenized in storage buffer (50 mM Tris-HCl, 1 mM MgCl2, and 1 mM EDTA and 10% sucrose) and frozen at −78° C. until used. Saturation binding reactions were initiated by the addition of membrane preparation (protein concentration of 5 μg/well for human CB2) into wells of a deep well plate containing [^3H]CP 55,940 (120 Ci/mmol, a nonselective CB agonist commercially available from Tocris) in assay buffer (50 mM Tris, 2.5 mM EDTA, 5 mM MgCl2, and 0.5 mg/mL fatty acid free BSA, pH 7.4). After 90 min incubation at 30° C., binding reaction was terminated by the addition of 300 μL/well of cold assay buffer followed by rapid vacuum filtration through a UniFilter-96 GF/C filter plates (pre-soaked in 1 mg/mL BSA for 2 hours). The bound activity was counted in a TopCount using Microscint-20. Saturation experiments were conducted with twelve concentrations of [^3H]CP 55,940 ranging from 0.01 to 8 nM. Competition experiments were conducted with 0.5 nM [^3H]CP 55,940 and five concentrations (0.01 nM to 10 μM) of displacing ligands. The addition of 10 μM unlabeled CP 55,940 (Tocris, Ellisville, Mo.) was used to assess nonspecific binding.

For another assay, the target named is rat CB2 receptors (Rattus norvegicus (Rat), UniProt Q9QZN9). In words: rat CB2 radioligand binding assay ([3H]CP 55,940 competition). The conditions noted are these: HEK293 membranes, 0.5 nM [3H]CP 55,940. The protocol:
as §2
HEK293 cells stably expressing rat CB2 receptors were grown until a confluent monolayer was formed. Briefly, the cells were harvested and homogenized in TE buffer (50 mM Tris-HCl, 1 mM MgCl2, and 1 mM EDTA) using a polytron for 2×10 second bursts in the presence of protease inhibitors, followed by centrifugation at 45,000×g for 20 minutes. The final membrane pellet was re-homogenized in storage buffer (50 mM Tris-HCl, 1 mM MgCl2, and 1 mM EDTA and 10% sucrose) and frozen at −78° C. until used. Saturation binding reactions were initiated by the addition of membrane preparation (protein concentration of 20 μg/well for rat CB2) into wells of a deep well plate containing [^3H]CP 55,940 (120 Ci/mmol, a nonselective CB agonist commercially available from Tocris) in assay buffer (50 mM Tris, 2.5 mM EDTA, 5 mM MgCl2, and 0.5 mg/mL fatty acid free BSA, pH 7.4). After 45 min incubation at 30° C., binding reaction was terminated by the addition of 300 μl/well of cold assay buffer followed by rapid vacuum filtration through a UniFilter-96 GF/C filter plates (pre-soaked in 1 mg/mL BSA for 2 hours). The bound activity was counted in a TopCount using Microscint-20. Saturation experiments were conducted with twelve concentrations of [^3H]CP 55,940 ranging from 0.01 to 8 nM. Competition experiments were conducted with 0.5 nM [^3H]CP 55,940 and five concentrations of displacing ligands selected from the range of 0.01 nM to 10 μM. The addition of 10 μM unlabeled CP 55,940 (Tocris, Ellisville, Mo.) was used to assess nonspecific binding.

For assay [2], the target named is rat CB2 receptors (HEK cells) (Rattus norvegicus (Rat), UniProt Q9QZN9). In words: rat CB2 cyclase functional assay (HitHunter cAMP). In kind it is cell-based. How it is done: as §1
[3] abbreviates: HEK cells, forskolin 18 μM, read-out: rat CB2 cyclase (EC50).
Setting [4] is: HEK cells, forskolin 37 μM, read-out: rCB1 cyclase (EC50).

Sequence of human CB2 receptors (P34972 whole entry): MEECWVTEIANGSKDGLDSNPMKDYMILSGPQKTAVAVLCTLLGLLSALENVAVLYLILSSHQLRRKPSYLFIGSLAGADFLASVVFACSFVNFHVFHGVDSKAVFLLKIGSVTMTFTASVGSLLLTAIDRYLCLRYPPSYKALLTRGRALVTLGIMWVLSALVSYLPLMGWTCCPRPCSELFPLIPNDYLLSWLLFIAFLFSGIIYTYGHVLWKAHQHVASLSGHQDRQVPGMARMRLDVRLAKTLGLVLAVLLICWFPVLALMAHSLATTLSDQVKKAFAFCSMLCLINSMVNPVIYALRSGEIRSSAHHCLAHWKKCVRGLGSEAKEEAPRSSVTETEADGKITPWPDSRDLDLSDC
Sequence of rat CB1 receptors (HEK cells) (P20272 whole entry): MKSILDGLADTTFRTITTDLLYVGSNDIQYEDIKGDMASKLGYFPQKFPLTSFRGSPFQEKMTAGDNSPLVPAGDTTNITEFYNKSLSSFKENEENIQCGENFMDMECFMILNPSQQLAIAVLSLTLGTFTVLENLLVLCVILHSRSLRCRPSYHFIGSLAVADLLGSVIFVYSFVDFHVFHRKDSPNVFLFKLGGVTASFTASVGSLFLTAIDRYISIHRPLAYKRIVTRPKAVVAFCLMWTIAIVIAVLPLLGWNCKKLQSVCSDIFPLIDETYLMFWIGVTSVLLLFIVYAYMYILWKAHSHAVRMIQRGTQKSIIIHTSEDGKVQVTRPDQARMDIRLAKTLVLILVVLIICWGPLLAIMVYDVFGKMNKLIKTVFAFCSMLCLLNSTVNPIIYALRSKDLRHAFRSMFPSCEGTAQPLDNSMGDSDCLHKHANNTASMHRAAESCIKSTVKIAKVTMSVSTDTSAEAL

With `CC(C)(C)c1cn(C[C@H]2CCCO2)/c(=N/C(=O)c2cc(C(F)(F)F)ccc2OC[C@H]2CCCCN2)s1` [Example 6, N-[(2Z)-5-tert-butyl-3-[(2R)-tetrahydrofuran-2-ylmethyl]-1,3-thiazol-2(3H)-ylidene]-2-[(2R)-piperidin-2-ylmethoxy]-5-(trifluoromethyl)benzamide], the figures for the EC50 in assay [1] and in assay [2] (setting [3]) were 4500 nM and 0.4 nM, respectively. Besides, the Ki on human CB2 receptors was 30 nM; on rat CB2 receptors, 14 nM.

On to `CC(C)(C)c1cn(C[C@H]2CCCO2)/c(=N/C(=O)c2cc(C(F)(F)F)ccc2OC[C@H]2CCC[N+]2(C)[O-])s1` (some centres unmarked) [Example 49], for which the results for the EC50 in assay [1] (setting [4]) and in assay [2] (setting [3]) were 7760 nM and 0.45 nM, respectively. The inhibition constant Ki was found to be 24 nM on human CB2 receptors and 12 nM on rat CB2 receptors.

As to `CN1CCN(C)C(COc2ccc(C(F)(F)F)cc2C(=O)/N=c2\sc(C(C)(C)C)cn2C[C@@H]2CCCO2)C1` (some centres unmarked) [Example 34, N-[(2Z)-5-tert-butyl-3-[(25)-tetrahydrofuran-2-ylmethyl]-1,3-thiazol-2(3H)-ylidene]-2-[(1,4-dimethylpiperazin-2-yl)methoxy]-5-(trifluoromethyl)benzamide], the EC50 in assay [1] (setting [4]) was 4090 nM; in assay [2] (setting [3]), 0.3 nM. Besides, the Ki on human CB2 receptors was 25 nM; at rat CB2 receptors, 13 nM.

On to `CN1CC[C@@H]1COc1ccc(C(F)(F)F)cc1C(=O)/N=c1\sc(C(C)(C)C)cn1C[C@H]1CCCO1` [Example 8, N-[(2Z)-5-tert-butyl-3-[(2R)-tetrahydrofuran-2-ylmethyl]-1,3-thiazol-2(3H)-ylidene]-2-{[(2R)-1-methylazetidin-2-yl]methoxy}-5-(trifluoromethyl)benzamide], for which the EC50 in assay [1] is 3680 nM; in assay [2] (setting [3]) it was 0.35 nM. Further, the Ki at human CB2 receptors amounted to 47 nM; at rat CB2 receptors, 17 nM.

As to `CN(CCOc1ccc(C(F)(F)F)cc1C(=O)/N=c1\sc(C(C)(C)C)cn1C[C@H]1CCCO1)c1ccccc1` [Example 35, N-[(2Z)-5-tert-butyl-3-[(2R)-tetrahydrofuran-2-ylmethyl]-1,3-thiazol-2(3H)-ylidene]-2-{2-[methyl(phenyl)amino]ethoxy}-5-(trifluoromethyl)benzamide], the results for the EC50 in assay [1] and in assay [2] (setting [3]) were 9490 nM and 6.31 nM, respectively. The Ki on human CB2 receptors came out at 14 nM; on rat CB2 receptors, 6.5 nM.

Turning to `CC(C)N1CCC[C@H]1COc1ccc(C(F)(F)F)cc1C(=O)/N=c1\sc(C(C)(C)C)cn1C[C@H]1CCCO1` [Example 46, N-[(2Z)-5-tert-butyl-3-[(2R)-tetrahydrofuran-2-ylmethyl]-1,3-thiazol-2(3H)-ylidene]-2-{[(2S)-1-isopropylpyrrolidin-2-yl]methoxy}-5-(trifluoromethyl)benzamide], the EC50 in assay [1] came to 5420 nM; in assay [2] (setting [3]), 7.32 nM. The Ki on human CB2 receptors was 102 nM; at rat CB2 receptors, 21 nM.

For `CN1CCC(COc2ccc(C(F)(F)F)cc2C(=O)/N=c2\sc(C(C)(C)C)cn2C[C@H]2CCCO2)CC1` [Example 15, N-[(2Z)-5-tert-butyl-3-[(2R)-tetrahydrofuran-2-ylmethyl]-1,3-thiazol-2(3H)-ylidene]-2-[(1-methylpiperidin-4-yl)methoxy]-5-(trifluoromethyl)benzamide], the EC50 in assay [1] is 13000 nM; in assay [2] (setting [3]), 6.26 nM. The Ki on human CB2 receptors amounted to 1000 nM; on rat CB2 receptors it was 83 nM.

With `COCCn1cc(C(C)(C)C)s/c1=N\C(=O)c1cc(C(F)(F)F)ccc1OCc1cnccn1` [Example 41, N-[(2Z)-5-tert-butyl-3-(2-methoxyethyl)-1,3-thiazol-2(3H)-ylidene]-2-(pyrazin-2-ylmethoxy)-5-(trifluoromethyl)benzamide], the half-maximal effective concentration (EC50) in assay [1] worked out at 5700 nM; in assay [2], 4.49 nM. In addition, the Ki at human CB2 receptors was determined as 45 nM; at rat CB2 receptors, 14 nM.
